Measurements taken from PubChem BioAssay (NCI).
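Five concentrations, 48 hours, 96-well plates. GI50 is the concentration that inhibits growth by half. TGI marks complete inhibition of growth.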

Assays:
Assay in all cases: inhibition of tumour cell growth, NCI panel, 48 h
HS 578T breast = test system: HS 578T breast
LOX IMVI melanoma = test system: LOX IMVI melanoma
MCF7 breast = test system: MCF7 breast
NCI-H226 lung = test system: NCI-H226 lung
NCI-H460 lung = test system: NCI-H460 lung
OVCAR-3 ovarian = test system: OVCAR-3 ovarian
RPMI-8226 leukemia = test system: RPMI-8226 leukemia
SF-268 CNS = test system: SF-268 CNS
TK-10 renal = test system: TK-10 renal
UO-31 renal = test system: UO-31 renal

Row | Compound | TGI (HS 578T breast) | TGI (LOX IMVI melanoma) | TGI (MCF7 breast) | TGI (NCI-H226 lung) | TGI (NCI-H460 lung) | TGI (OVCAR-3 ovarian) | TGI (RPMI-8226 leukemia) | TGI (SF-268 CNS) | TGI (TK-10 renal) | TGI (UO-31 renal) | GI50 (HS 578T breast) | GI50 (LOX IMVI melanoma) | GI50 (MCF7 breast) | GI50 (NCI-H226 lung) | GI50 (NCI-H460 lung) | GI50 (OVCAR-3 ovarian) | GI50 (RPMI-8226 leukemia) | GI50 (SF-268 CNS) | GI50 (UO-31 renal) | GI50 (TK-10 renal)
1 | CCOC(=O)C1(C(=O)OCC)Nc2cccnc2N(C)N1 | > 100 µM | 52.6 µM | 34.8 µM | 35.3 µM | > 100 µM | 41.5 µM | 40.8 µM | > 100 µM | 40.1 µM | 31.8 µM | – | – | – | – | – | – | – | – | – | –
2 | CNC(=O)OC(C)CN1c2ccccc2Sc2ccc(Cl)cc21 (stereo unspecified) | > 10 µM | > 10 µM | > 10 µM | > 10 µM | > 10 µM | > 10 µM | > 10 µM | > 10 µM | > 10 µM | > 10 µM | – | – | – | – | – | – | – | – | – | –
3 | C[C@]12CC[C@@H]3c4ccc(OP(=O)(O)O)cc4CC[C@H]3[C@@H]1CCC2=O | > 100 µM | > 100 µM | > 100 µM | – | > 100 µM | > 100 µM | > 100 µM | > 100 µM | > 100 µM | > 100 µM | – | – | – | – | – | – | – | – | – | –
4 | O=C(CCCCCCC(=O)Nc1ccc(N(CCCl)CCCl)cc1)NO | > 100 µM | 3.78 µM | 24.3 µM | 21 µM | 12.9 µM | 6.66 µM | > 100 µM | 3.82 µM | – | 13 µM | 5.66 µM | 1.34 µM | 1.48 µM | 4.01 µM | 0.598 µM | 1.92 µM | 3.02 µM | 1.08 µM | 1.82 µM | –
5 | COc1cc(C2C(C(=O)O)=C(CO)Oc3cc4c(cc32)OCO4)cc(OC)c1O (stereo unspecified) | – | > 100 µM | – | – | > 100 µM | > 100 µM | > 100 µM | – | > 100 µM | > 100 µM | – | – | – | – | – | – | – | – | – | –
6 | CCCc1[nH]c(SCCCCCCCCSc2nc(-c3ccc(F)cc3)c(CCC)[nH]2)nc1-c1ccc(F)cc1 | – | > 100 µM | – | – | > 100 µM | 12.9 µM | – | 16.9 µM | > 100 µM | > 100 µM | – | – | – | – | – | – | – | – | – | –
7 | ONc1ncnc2nc[nH]c12 | – | – | – | > 100 µM | > 100 µM | > 100 µM | > 100 µM | > 100 µM | > 100 µM | > 100 µM | – | – | – | – | – | – | – | – | – | –
8 | N=c1c2c(C(N)=O)cn(C3OC(CO)C(O)C3O)c2ncn1O (stereo unspecified) | 7.91 µM | 0.438 µM | – | 1.57 µM | > 20.4 µM | 0.943 µM | – | – | 0.426 µM | > 20.6 µM | – | – | – | – | – | – | – | – | – | –
9 | Cc1cccc2nc3c(C(=O)NCCN(C)C)cccc3cc12 | – | 4.76 µM | 9.44 µM | 4.65 µM | 4.18 µM | 7.5 µM | 4.19 µM | 5.09 µM | – | 5.44 µM | – | – | – | – | – | – | – | – | – | –
10 | O=S(=O)(O)c1ccc2cccc(N=Nc3c(O)ccc4ccccc34)c2c1 | > 100 µM | – | > 100 µM | > 100 µM | > 100 µM | > 100 µM | – | > 100 µM | > 100 µM | > 100 µM | – | – | – | – | – | – | – | – | – | –
11 | CCOC(=O)c1nc2ccc(Cl)cc2c2c1Cc1ccccc1-2 | – | > 100 µM | – | > 100 µM | – | > 100 µM | > 100 µM | > 100 µM | > 100 µM | > 100 µM | – | – | – | – | – | – | – | – | – | –
12 | CN(C)CC(=O)Nc1ccc(Cn2nnc3c2C(=O)c2nnn(Cc4ccc(NC(=O)CN(C)C)cc4)c2C3=O)cc1 | 2.06 µM | – | – | 0.444 µM | 1.2 µM | 0.132 µM | 0.783 µM | – | 7.58 µM | – | 0.337 µM | – | – | 0.209 µM | 0.167 µM | 0.0318 µM | 0.225 µM | – | – | 2.86 µM
13 | CC1SC(c2ccccc2)N(CCc2cccs2)C1=O (stereo unspecified) | 38.1 µM | 13.7 µM | 15.2 µM | 26.4 µM | 14.7 µM | 13.3 µM | 8.07 µM | 16.1 µM | 26 µM | – | 4.52 µM | 2.9 µM | 3.36 µM | 6.15 µM | 3.55 µM | 3.03 µM | 2.44 µM | 3.56 µM | – | 4.05 µM
14 | CCOC(=O)N(Cc1cccs1)c1cc(OC)c(OC)c(OC)c1 | > 100 µM | > 100 µM | > 100 µM | > 100 µM | > 100 µM | > 100 µM | 51.9 µM | > 100 µM | > 100 µM | > 100 µM | – | – | – | – | – | – | – | – | – | –
15 | COc1ccc(/C(=C2/O[C@@H]([C@H]3COC(C)(C)O3)[C@H]3OC(C)(C)O[C@@H]23)c2cc(OC)c(OC)c(OC)c2)cc1O | 67.9 µM | 22.8 µM | > 100 µM | > 100 µM | > 100 µM | 43.3 µM | 34 µM | 53.6 µM | 86.3 µM | 70.4 µM | 6.97 µM | 5.93 µM | 12.3 µM | 64.7 µM | 29.3 µM | 4.84 µM | 4.82 µM | 7.95 µM | 21.8 µM | 36.6 µM
16 | CCS(=O)(=O)Nc1ccc(Nc2c3ccccc3nc3ccccc23)c(OC)c1 | – | 4.26 µM | 6.15 µM | 3.19 µM | 1.19 µM | 6.05 µM | 8.24 µM | 12.5 µM | – | 6.34 µM | – | – | – | – | – | – | – | – | – | –
17 | Cc1nc(N)nc(N)c1-c1ccc(Cl)c(Cl)c1 | 58 µM | > 100 µM | > 100 µM | > 100 µM | > 92.1 µM | > 49 µM | > 100 µM | > 100 µM | > 51.9 µM | > 89.3 µM | – | – | – | – | – | – | – | – | – | –
18 | CCN(CC)CC(C)Nc1ccc([N+](=O)[O-])c2sc3ccccc3c(=O)c12 (stereo unspecified) | 13.4 µM | 2.39 µM | 2.36 µM | 3.72 µM | 2.14 µM | 11.5 µM | – | 18.5 µM | 54.2 µM | 3.29 µM | 2.72 µM | 1.02 µM | 0.452 µM | 1.09 µM | 0.401 µM | 2.88 µM | – | 2.71 µM | 1 µM | 1.91 µM
19 | CCSCCC(N)C(=O)O (stereo unspecified) | > 100 µM | > 100 µM | > 100 µM | > 100 µM | > 100 µM | > 100 µM | > 100 µM | > 100 µM | > 100 µM | > 100 µM | – | – | – | – | – | – | – | – | – | –
20 | CN1CC[C@@]2(c3cccc(O)c3)CC(=O)/C(=C/c3ccccc3)[C@H]1C2 | 9.81 µM | 3.46 µM | 10.3 µM | 42.5 µM | 18.7 µM | – | 7.04 µM | 19.7 µM | 29.2 µM | 25.5 µM | – | – | – | – | – | – | – | – | – | –
21 | Cn1c(=S)[nH]c2sc3c(c2c1=O)CCSC3 | > 100 µM | > 100 µM | > 100 µM | 88.6 µM | > 100 µM | 61 µM | > 100 µM | > 100 µM | > 100 µM | 25.8 µM | – | – | – | – | – | – | – | – | – | –
22 | COc1ccc2nc(-c3ccc(-c4noc(-c5cc(OC)c(OC)c(OC)c5)n4)cc3)[nH]c2c1 | 55.7 µM | 34.6 µM | 22.1 µM | 81.4 µM | 22.5 µM | 12.9 µM | > 100 µM | 45.6 µM | 13 µM | 38.7 µM | 9.49 µM | 13.3 µM | 1.08 µM | 22.7 µM | 4.6 µM | 4.25 µM | 6.02 µM | 7.13 µM | 18.9 µM | 4.62 µM
